Columns and labels:
[1] = system: HCV replicon in human hepatoma Huh-7 cell line; experiment: Anti-HCV replicon assay, EC50 (luciferase luminescence); type: cell-based; settings: Hepatitis C virus, Huh-7, 72 h
Procedure, shortened: (§1)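 Cytotoxicity (CC50) read by CellTiter-Glo luminescence after 10 min, and antiviral EC50 by luciferase signal after 30 min lysis with substrate, both at room temperature. Preceding step: 3-day exposure of 6000 Huh-7 HCV replicon cells per well to compound dilution series at 37° C, 5% CO2, in 0.5% DMSO.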

[2] = CC50 assay (CellTiter-Glo) in Huh-7 HCV replicon cells; type: cell-based; settings: human
Procedure, shortened: as §1

Question: Which EC50 [1] does the source give for `C#Cc1ccc2nc(N[C@H](C)c3ccc(S(N)(=O)=O)cc3)nc(OC3(C)CC3)c2n1` [Example 295, (R)-4-(1-(6-ethynyl-4-(1-methylcyclopropoxy)pyrido [3,2-d]pyrimidin-2-ylamino)ethyl)benzenesulfonamide] here?
Answer: < 100 nM

Question: And the CC50 at 3 days ([2]; Table 2, 3 days incubation)?
Answer: 1 to 10 µM

Question: Which EC50 [1] does the source give for `CS(=O)(=O)c1cc(-c2ccc3nc(NCc4ccc(S(N)(=O)=O)cc4)nc(NCC(F)(F)F)c3n2)ccc1F` [Example 21, 4-{[6-(4-Fluoro-3-methanesulfonyl-phenyl)-4-(2,2,2-trifluoro-ethylamino)-pyrido[3,2-d]pyrimidin-2-ylamino]-methyl}-benzenesulfonamide] here?
Answer: < 100 nM

Question: What about the CC50 at 3 days ([2]; Table 1, 3 days incubation) of the same compound?
Answer: > 25 µM

Question: Which results are given for `C[C@@H](Nc1nc(NCC(F)(F)F)c2nc(C#Cc3cncs3)ccc2n1)c1ccc(S(N)(=O)=O)cc1` [Example 297, (R)-4-(1-(6-(2-(thiazol-5-yl)ethynyl)-4-(2,2,2-trifluoro-ethylamino)pyrido[3,2-d]pyrimidin-2-ylamino)ethyl) benzenesulfonamide]?
Answer: EC50 [1]: 250 to 2000 nM; CC50 at 3 days ([2]; Table 2, 3 days incubation): > 10 µM

Question: Which EC50 [1] does the source give for `CC(Cn1cncn1)Nc1nc(NC2(C(F)(F)F)CC2)c2nc(-c3ccc(NC4CC4)nc3)ccc2n1` (stereo not drawn) [Example 114, N^2-(1-(1H-1,2,4-triazol-1-yl)propan-2-yl)-6-(6-(cyclopropylamino)pyridin-3-yl)-N^4-(1-(trifluoromethyl)cyclopropyl)pyrido[3,2-d] pyrimidine-2,4-diamine] here?
Answer: < 100 nM

Question: And the CC50 at 3 days ([2]; Table 2, 3 days incubation)?
Answer: > 10 µM

Question: With `Cc1ccc(-c2ccc3nc(NCc4ccc(S(N)(=O)=O)cc4)nc(NCC(F)(F)F)c3n2)cc1S(C)(=O)=O` [Example 143, 4-((6-(4-methyl-3-(methylsulfonyl)phenyl)-4-(2,2,2-trifluoroethylamino)pyrido[3,2-d]pyrimidin-2-ylamino)methyl)benzene-sulfonamide] as the compound, how does the EC50 [1] read?
Answer: < 100 nM

Question: What about the CC50 at 3 days ([2]; Table 2, 3 days incubation) of the same compound?
Answer: > 10 µM

Question: For `COc1ccc(-c2ccc3nc(NCc4ccc(S(N)(=O)=O)cc4)nc(NCC(F)(F)F)c3n2)cc1C(F)(F)F` [Example 228, 4-((6-(4-methoxy-3-(trifluoromethyl)phenyl)-4-(2,2,2-trifluoroethylamino)pyrido[3,2-d]pyrimidin-2-ylamino)methyl)benzene-sulfonamide], which EC50 [1] is on record?
Answer: 250 to 2000 nM

Question: What about the CC50 at 3 days ([2]; Table 2, 3 days incubation) of the same compound?
Answer: > 10 µM

Question: Which EC50 [1] does the source give for `CC#Cc1ccc2nc(NCc3cc(Cl)cc(S(N)(=O)=O)c3)nc(OC3(C)CC3)c2n1` [Example 311, 3-chloro-5-((4-(1-methylcyclo-propoxy)-6-(prop-1-ynyl)pyrido [3,2-d]pyrimidin-2-ylamino)methyl)benzenesulfonamide] here?
Answer: < 100 nM

Question: And the CC50 at 3 days ([2]; Table 2, 3 days incubation)?
Answer: > 10 µM

Question: With `COc1ccc(-c2ccc3nc(NCc4cc(F)cc(F)c4)nc(NC4(C(F)(F)F)CC4)c3n2)cc1S(C)(=O)=O` [Example 40, N^2-(3,5-difluorobenzyl)-6-(4-methoxy-3-(methylsulfonyl)phenyl)-N^4-(1-(trifluoromethyl)cyclopropyl)pyrido[3,2-d] pyrimidine-2,4-diamine] as the compound, how does the EC50 [1] read?
Answer: < 100 nM

Question: What about the CC50 at 3 days ([2]; Table 2, 3 days incubation) of the same compound?
Answer: 1 to 10 µM

Question: What does the source list for `COc1ccc(-c2ccc3nc(NC(C)c4cc(F)cc(F)c4)nc(NCC(F)(F)F)c3n2)cc1S(C)(=O)=O` (stereo not drawn) [Example 180, N^2-(1-(3,5-difluorophenyl)ethyl)-6-(4-methoxy-3-(methylsulfonyl)phenyl)-N^4-(2,2,2-trifluoroethyl)pyrido [3,2-d]pyrimidine-2,4-diamine]?
Answer: EC50 [1]: 100 to 250 nM; CC50 at 3 days ([2]; Table 2, 3 days incubation): 1 to 10 µM

Question: Which EC50 [1] does the source give for `Fc1ccc(-c2ccc3nc(NCc4cc(F)cc(-n5cncn5)c4)nc(NC4(C(F)(F)F)CC4)c3n2)cc1` [Example 128, N^2-(3-fluoro-5-(1H-1,2,4-triazol-1-yl)benzyl)-6-(4-fluorophenyl)-N^4-(1-(trifluoromethyl)cyclopropyl) pyrido[3,2-d]pyrimidine-2,4-diamine] here?
Answer: 250 to 2000 nM

Question: What about the CC50 at 3 days ([2]; Table 2, 3 days incubation) of the same compound?
Answer: > 10 µM

Question: With `COCC#Cc1ccc2nc(N[C@H](C)c3ccc(S(N)(=O)=O)cc3)nc(NCC(F)(F)F)c2n1` [Example 277, (R)-4-(1-(6-(3-methoxyprop-1-ynyl)-4-(2,2,2-trifluoroethyl-amino)pyrido[3,2-d]pyrimidin-2-ylamino)ethyl)benzene-sulfonamide] as the compound, how does the EC50 [1] read?
Answer: < 100 nM

Question: And the CC50 at 3 days ([2]; Table 2, 3 days incubation)?
Answer: > 10 µM

Question: Which EC50 [1] does the source give for `CCOc1ccc(-c2ccc3nc(N[C@H](C)c4ccc(-n5cncn5)cc4)nc(NCC(F)(F)F)c3n2)cc1S(N)(=O)=O` [Example 265, 5-(2-((R)-1-(4-(1H-1,2,4-triazol-1-yl)phenyl)ethylamino)-4-(2,2,2-trifluoroethylamino)pyrido [3,2-d]pyrimidin-6-yl)-2-ethoxybenzenesulfonamide] here?
Answer: < 100 nM

Question: And the CC50 at 3 days ([2]; Table 2, 3 days incubation)?
Answer: 1 to 10 µM

Question: Which results are given for `COc1ccc(-c2ccc3nc(N[C@H](C)c4ccc(-n5cncn5)cc4)nc(NC4(C(F)(F)F)CC4)c3n2)cc1S(C)(=O)=O` [Example 94, N^2-((R)-1-(4-(1H-1,2,4-triazol-1-yl)phenyl)ethyl)-6-(4-methoxy-3-(methylsulfonyl)phenyl)-N^4-(1-(trifluoromethyl)cyclopropyl) pyrido[3,2-d]pyrimidine-2,4-diamine]?
Answer: EC50 [1]: < 100 nM; CC50 at 3 days ([2]; Table 2, 3 days incubation): 1 to 10 µM

Question: Which EC50 [1] does the source give for `Nc1ccc(-c2ccc3nc(NCc4cccc(-n5cncn5)c4)nc(NC4(C(F)(F)F)CC4)c3n2)cn1` [Example 73, N^2-(3-(1H-1,2,4-triazol-1-yl)benzyl)-6-(6-aminopyridin-3-yl)-N^4-(1-(trifluoromethyl)cyclopropyl)pyrido[3,2-d] pyrimidine-2,4-diamine] here?
Answer: < 100 nM

Question: What about the CC50 at 3 days ([2]; Table 2, 3 days incubation) of the same compound?
Answer: 1 to 10 µM

Question: For `NS(=O)(=O)c1ccc(Cl)c(CNc2nc(NC3(C(F)(F)F)CC3)c3nc(-c4ccc(F)cc4)ccc3n2)c1` [Example 41, 4-chloro-3-((6-(4-fluorophenyl)-4-(1-(trifluoromethyl)cyclopropyl-amino)pyrido[3,2-d]pyrimidin-2-ylamino)methyl)benzene-sulfonamide], which EC50 [1] is on record?
Answer: 100 to 250 nM

Question: And the CC50 at 3 days ([2]; Table 2, 3 days incubation)?
Answer: 1 to 10 µM

Question: With `CC[C@@H](Nc1nc(NCC(F)(F)F)c2nc(-c3ccc(F)cc3)ccc2n1)c1ccccc1S(N)(=O)=O` [Example 11, (R)-2-{1-[6-(4-Fluoro-phenyl)-4-(2,2,2-trifluoro-ethylamino)-pyrido[3,2-d]pyrimidin-2-ylamino]-propyl}-benzenesulfonamide] as the compound, how does the EC50 [1] read?
Answer: 250 to 2000 nM

Question: And the CC50 at 3 days ([2]; Table 1, 3 days incubation)?
Answer: > 25 µM

Question: Which EC50 [1] does the source give for `NS(=O)(=O)c1ccc(CNc2nc(NCC(F)(F)F)c3nc(-c4ccc(OC(F)F)nc4)ccc3n2)cc1` [Example 244, 4-((6-(6-(difluoromethoxy)pyridin-3-yl)-4-(2,2,2-trifluoroethylamino)pyrido [3,2-d]pyrimidin-2-ylamino)methyl)benzene-sulfonamide] here?
Answer: 100 to 250 nM

Question: And the CC50 at 3 days ([2]; Table 2, 3 days incubation)?
Answer: > 10 µM

Question: What does the source list for `FC(F)(F)CNc1nc(NCc2ccc(-n3cncn3)cc2)nc2ccc(-c3ccc(OC4CC4)nc3)nc12` [Example 246, N^2-(4-(1H-1,2,4-triazol-1-yl)benzyl)-6-(6-cyclopropoxy-pyridin-3-yl)-N^4-(2,2,2-trifluoroethyl)pyrido[3,2-d] pyrimidine-2,4-diamine]?
Answer: EC50 [1]: < 100 nM; CC50 at 3 days ([2]; Table 2, 3 days incubation): > 10 µM

Question: Which EC50 [1] does the source give for `COc1ccc(-c2ccc3nc(NCc4ccc(F)c(F)c4)nc(NCC(F)(F)F)c3n2)cc1S(N)(=O)=O` [Example 234, 5-(2-(3,4-difluorobenzylamino)-4-(2,2,2-trifluoroethylamino)pyrido[3,2-d]pyrimidin-6-yl)-2-methoxybenzenesulfonamide] here?
Answer: < 100 nM

Question: And the CC50 at 3 days ([2]; Table 2, 3 days incubation)?
Answer: > 10 µM

Question: Which EC50 [1] does the source give for `CS(=O)(=O)c1cccc(CNc2nc(NC3(C(F)(F)F)CC3)c3nc(-c4ccc(F)cc4)ccc3n2)c1` [Example 86, N^2-(3-(methylsulfonyl)benzyl)-6-(4-fluorophenyl)-N^4-(1-(trifluoromethyl)cyclopropyl) pyrido[3,2-d]pyrimidine-2,4-diamine] here?
Answer: < 100 nM

Question: And the CC50 at 3 days ([2]; Table 2, 3 days incubation)?
Answer: > 10 µM

Question: Which EC50 [1] does the source give for `NS(=O)(=O)c1ccc(CNc2nc(NC3(C(F)(F)F)CC3)c3nc(-c4ccc(F)cc4)ccc3n2)cc1` [Example 23, 4-{[6-(4-fluoro-phenyl)-4-(1-trifluoromethyl-cyclopropylamino)-pyrido[3,2-d]pyrimidin-2-ylamino]-methyl}-benzenesulfonamide] here?
Answer: < 100 nM

Question: What about the CC50 at 3 days ([2]; Table 2, 3 days incubation) of the same compound?
Answer: 1 to 10 µM

Question: For `CC1(Oc2nc(NCc3ccc(-n4cncn4)cc3)nc3ccc(-c4ccc(OC5CCC5)nc4)nc23)CC1` [Example 249, N-(4-(1H-1,2,4-triazol-1-yl)benzyl)-6-(6-cyclobutoxy-pyridin-3-yl)-4-(1-methylcyclo-propoxy)pyrido[3,2-d] pyrimidin-2-amine], which EC50 [1] is on record?
Answer: < 100 nM

Question: What about the CC50 at 3 days ([2]; Table 2, 3 days incubation) of the same compound?
Answer: 1 to 10 µM

Question: Which EC50 [1] does the source give for `CCOc1ccc(-c2ccc3nc(NCc4ccc(-n5ccnc5)cc4)nc(NCC(F)(F)F)c3n2)cc1S(N)(=O)=O` [Example 262, 5-(2-(4-(1H-imidazol-1-yl)benzylamino)-4-(2,2,2-trifluoroethylamino)pyrido [3,2-d]pyrimidin-6-yl)-2-ethoxybenzenesulfonamide] here?
Answer: < 100 nM

Question: What about the CC50 at 3 days ([2]; Table 2, 3 days incubation) of the same compound?
Answer: 1 to 10 µM

Question: With `COc1ccc(CNc2nc(NCC(F)(F)F)c3nc(-c4ccc(F)cc4)ccc3n2)cc1S(N)(=O)=O` [Example 6] as the compound, how does the EC50 [1] read?
Answer: 100 to 250 nM

Question: And the CC50 at 3 days ([2]; Table 1, 3 days incubation)?
Answer: > 25 µM

Question: Which results are given for `CCOc1ccc(-c2ccc3nc(NCc4ccc(-n5cncn5)cc4)nc(NCC(F)(F)F)c3n2)cc1S(C)(=O)=O` [Example 183, N^2-(4-(1H-1,2,4-triazol-1-yl)benzyl)-6-(4-ethoxy-3-(methylsulfonyl)phenyl)-N^4-(2,2,2-trifluoroethyl)pyrido [3,2-d]pyrimidine-2,4-diamine]?
Answer: EC50 [1]: < 100 nM; CC50 at 3 days ([2]; Table 2, 3 days incubation): 1 to 10 µM

Question: Which results are given for `COCC#Cc1ccc2nc(NCc3ccc(S(N)(=O)=O)cc3)nc(NCC(F)(F)F)c2n1` [Example 283, 4-((6-(3-methoxyprop-1-ynyl)-4-(2,2,2-trifluoroethylamino)pyrido[3,2-d]pyrimidin-2-ylamino)methyl)benzene-sulfonamide]?
Answer: EC50 [1]: 100 to 250 nM; CC50 at 3 days ([2]; Table 2, 3 days incubation): > 10 µM

Question: Which results are given for `NS(=O)(=O)c1cc(CNc2nc(NC3(C(F)(F)F)CC3)c3nc(-c4ccc(F)cc4)ccc3n2)cc(C(F)(F)F)c1` [Example 26, 3-{[6-(4-fluorophenyl)-4-(1-trifluoromethyl-cyclopropylamino)-pyrido[3,2-d]pyrimidin-2-ylamino]-methyl}-5-trifluoromethyl-benzenesulfonamide]?
Answer: EC50 [1]: 100 to 250 nM; CC50 at 3 days ([2]; Table 2, 3 days incubation): > 10 µM
